Measurements published in patent US20260297060A1, “COMPOUNDS FOR THE DEGRADATION OF MUTANT BRAF” (C4 THERAPEUTICS, INC., priority 2023, published 2026).
Where two headings read alike, the source gives them in different places.

Experiment: Pharmacokinetics in female BALB/c nude mice bearing A375 xenografts, 1 day dosing (PK and PD study): plasma, tumor and brain concentrations, AUC
Assay type: in vivo
Conditions: for Mean Concentration in Brain ± SEM / Mean Concentration in Plasma ± SEM / Mean Concentration in Tumor ± SEM: BQL: below the lower limit of quantitation; for AUC at 24 h: read-out: Brain AUC at 24 hours, Average
Source text: The concentrations of Dabrafenib, Compound 26 and Compound 141 in the treatment of female BALB/c nude mice bearing A375 xenografts are shown in Table 62-Table 72 and FIG. 52-FIG. 73.

[1] = 1.5 mg/kg p.o. BID × 1 day, post 2nd dose, 48 h
[2] = 2 mg/kg p.o. TID × 1 day, post 3rd dose, 48 h
[3] = 3 mg/kg p.o. BID × 1 day, post 2nd dose, 36 h
[4] = mouse, brain, po, 1.5 mg/kg, 1.5 mg/kg p.o. BID × 1 day, post 2nd dose, read-out: Mean Concentration in Brain ± SEM
[5] = mouse, brain, po, 2 mg/kg, 2 mg/kg p.o. TID × 1 day, post 3rd dose, read-out: Mean Concentration in Brain ± SEM
[6] = mouse, brain, po, 3 mg/kg, 3 mg/kg p.o. BID × 1 day, post 2nd dose, read-out: Mean Concentration in Brain ± SEM
[7] = mouse, brain, po, 6 mg/kg, 6 mg/kg p.o. QD × 1 day, read-out: Mean Concentration in Brain ± SEM
[8] = mouse, brain, po, 10 mg/kg, 10 mg/kg p.o. BID × 1 day, post 2nd dose, read-out: Mean Concentration in Brain ± SEM
[9] = mouse, plasma, po, 1.5 mg/kg, 1.5 mg/kg p.o. BID × 1 day, post 1st dose, read-out: Mean Concentration in Plasma ± SEM
[10] = mouse, plasma, po, 1.5 mg/kg, 1.5 mg/kg p.o. BID × 1 day, post 2nd dose, read-out: Mean Concentration in Plasma ± SEM
[11] = mouse, plasma, po, 2 mg/kg, 2 mg/kg p.o. TID × 1 day, post 1st dose, read-out: Mean Concentration in Plasma ± SEM
[12] = mouse, plasma, po, 2 mg/kg, 2 mg/kg p.o. TID × 1 day, post 2nd dose, read-out: Mean Concentration in Plasma ± SEM
[13] = mouse, plasma, po, 2 mg/kg, 2 mg/kg p.o. TID × 1 day, post 3rd dose, read-out: Mean Concentration in Plasma ± SEM
[14] = mouse, plasma, po, 3 mg/kg, 3 mg/kg p.o. BID × 1 day, post 1st dose, read-out: Mean Concentration in Plasma ± SEM

In the case of `CCN(C)S(=O)(=O)Nc1ccc(F)c(Oc2ccc3ncn([C@H]4COC5(CCN(C6CC7(C6)CN(c6cc8c(cc6F)c(N6CCC(=O)NC6=O)nn8C)C7)CC5)C4)c(=O)c3c2)c1C#N` [Compound 26, (3R)-3-[6-[2-cyano-3-[[ethyl(methyl)sulfamoyl]amino]-6-fluoro-phenoxy]-4-oxo-quinazolin-3-yl]-8-[2-[3-(2,4-dioxohexahydropyrimidin-1-yl)-5-fluoro-1-methyl-indazol-6-yl]-2-azaspiro[3.3]heptan-6-yl]-1-oxa-8-azaspiro[4.5]decane], the “Mean Concentration in Brain ± SEM” value (1.5 mg/kg p.o. BID × 1 day, post 2nd dose, 24 h) is reported as “BQL^a”, the “Mean Concentration in Brain ± SEM” value [1] is reported as “BQL” and the “Mean Concentration in Plasma ± SEM” value [1] is reported as “BQL”. The “Mean Concentration in Brain ± SEM” value (2 mg/kg p.o. TID × 1 day, post 3rd dose, 24 h) was “BQL^a”, the “Mean Concentration in Brain ± SEM” value [2] was “BQL” and the “Mean Concentration in Plasma ± SEM” value [2] was “BQL”. For the same molecule, the “Mean Concentration in Tumor ± SEM” value [2] was “BQL”, the “Mean Concentration in Brain ± SEM” value (3 mg/kg p.o. BID × 1 day, post 2nd dose, 24 h) was “BQL^a” and the “Mean Concentration in Brain ± SEM” value [3] was “BQL”. For the same molecule, the “Mean Concentration in Tumor ± SEM” value [3] was “BQL”, the “Mean Concentration in Brain ± SEM” value (3 mg/kg p.o. BID × 1 day, post 2nd dose, 48 h) was “BQL” and the “Mean Concentration in Brain ± SEM” value (6 mg/kg p.o. QD × 1 day, 24 h) was “BQL^a”. For the same molecule, the “Mean Concentration in Brain ± SEM” value (6 mg/kg p.o. QD × 1 day, 48 h) was “BQL”, the “Mean Concentration in Brain ± SEM” value (10 mg/kg p.o. BID × 1 day, post 2nd dose, 24 h) was “BQL^a” and the “Mean Concentration in Brain ± SEM” value (10 mg/kg p.o. BID × 1 day, post 2nd dose, 48 h) was “BQL”. For the same molecule, the concentration at 1 h [4] was 25 ± 3.74 ng/g, the concentration at 4 h [4] was 21.8 ± 3.64 ng/g and the concentration at 10 h [4] was 9.78 ± 0.841 ng/g. For the same molecule, the concentration at 1 h [5] was 66.5 ± 11.7 ng/g, the concentration at 4 h [5] was 26.9 ± 2.99 ng/g and the concentration at 10 h [5] was 23 ± 7.44 ng/g. The concentration at 0.25 h [6] was 29.7 ng/g, the concentration at 0.5 h [6] was 41 ± 4.05 ng/g and the concentration at 1 h [6] was 89.1 ± 25 ng/g. The concentration at 2 h [6] was 99.5 ± 11.9 ng/g, the concentration at 4 h [6] was 35.8 ± 6.52 ng/g and the concentration at 10 h [6] was 14.5 ± 0.737 ng/g. For the same molecule, the concentration at 1 h [7] was 167 ± 27.6 ng/g, the concentration at 4 h [7] was 79.2 ± 21.8 ng/g and the concentration at 10 h [7] was 30.8 ± 8.11 ng/g. It also gave a concentration at 1 h [8] of 313 ± 41.7 ng/g, a concentration at 4 h [8] of 185 ± 18.2 ng/g and a concentration at 10 h [8] of 80.4 ± 8.59 ng/g. The AUC at 24 h (mouse, brain, po, 1.5 mg/kg p.o. BID × 1 day) was 233 ng·h/mL, the AUC at 24 h (mouse, brain, po, 2 mg/kg p.o. TID × 1 day) was 451 ng·h/mL and the AUC at 24 h (mouse, brain, po, 3 mg/kg p.o. BID × 1 day) was 522 ng·h/mL. For the same molecule, the AUC at 24 h (mouse, brain, po, 6 mg/kg p.o. QD × 1 day) was 915 ng·h/mL, the AUC at 24 h (mouse, brain, po, 10 mg/kg p.o. BID × 1 day) was 2100 ng·h/mL and the concentration at 0.25 h [9] was 1180 ± 103 ng/mL. The concentration at 0.5 h [9] was 2620 ± 182 ng/mL, the concentration at 1 h [9] was 3790 ± 553 ng/mL and the concentration at 2 h [9] was 3090 ± 346 ng/mL. For the same molecule, the concentration at 4 h [9] was 1110 ± 339 ng/mL, the concentration at 8 h [9] was 318 ± 78.2 ng/mL and the concentration at 12 h (mouse, plasma, po, 1.5 mg/kg, 1.5 mg/kg p.o. BID × 1 day, post 1st dose, 12 h, read-out: Mean Concentration in Plasma ± SEM) was 121 ± 6.74 ng/mL. The concentration at 0.25 h [10] was 629 ± 24.4 ng/mL, the concentration at 0.5 h [10] was 1580 ± 108 ng/mL and the concentration at 1 h [10] was 1820 ± 86.6 ng/mL. For the same molecule, the concentration at 2 h [10] was 2930 ± 312 ng/mL, the concentration at 4 h [10] was 1740 ± 355 ng/mL and the concentration at 10 h [10] was 541 ± 95.8 ng/mL. It also gave a concentration at 24 h (mouse, plasma, po, 1.5 mg/kg, 1.5 mg/kg p.o. BID × 1 day, post 2nd dose, 24 h, read-out: Mean Concentration in Plasma ± SEM) of 4.74 ± 1.31 ng/mL, a concentration at 36 h (mouse, plasma, po, 1.5 mg/kg, 1.5 mg/kg p.o. BID × 1 day, post 2nd dose, 36 h, read-out: Mean Concentration in Plasma ± SEM) of 0.889 ng/mL and a concentration at 0.25 h [11] of 1600 ± 272 ng/mL. For the same molecule, the concentration at 0.5 h [11] was 2880 ± 289 ng/mL, the concentration at 1 h [11] was 3720 ± 77.7 ng/mL and the concentration at 2 h [11] was 2930 ± 635 ng/mL. The concentration at 4 h [11] was 1420 ± 56.7 ng/mL, the concentration at 8 h [11] was 283 ± 80.3 ng/mL and the concentration at 0.25 h [12] was 1390 ± 84.1 ng/mL. For the same molecule, the concentration at 2 h [12] was 2720 ± 466 ng/mL, the concentration at 8 h [12] was 580 ± 166 ng/mL and the concentration at 0.25 h [13] was 1090 ± 75.2 ng/mL. It also gave a concentration at 0.5 h [13] of 2630 ± 81.7 ng/mL, a concentration at 1 h [13] of 3780 ± 584 ng/mL and a concentration at 2 h [13] of 3680 ± 376 ng/mL. The concentration at 4 h [13] was 1770 ± 127 ng/mL, the concentration at 10 h [13] was 1250 ± 411 ng/mL and the concentration at 24 h (mouse, plasma, po, 2 mg/kg, 2 mg/kg p.o. TID × 1 day, post 3rd dose, 24 h, read-out: Mean Concentration in Plasma ± SEM) was 9.4 ± 3.31 ng/mL. For the same molecule, the concentration at 36 h (mouse, plasma, po, 2 mg/kg, 2 mg/kg p.o. TID × 1 day, post 3rd dose, 36 h, read-out: Mean Concentration in Plasma ± SEM) was 1.45 ng/mL, the concentration at 0.25 h [14] was 3010 ± 401 ng/mL and the concentration at 0.5 h [14] was 8140 ± 2030 ng/mL. The concentration at 1 h [14] was 7840 ± 1330 ng/mL and the concentration at 2 h [14] was 6910 ± 1450 ng/mL.
